Where two headings read alike, the source gives them in different places.
System: rat mixed hippocampal cultures
Test: 3-NP neurotoxicity assay, MTT viability, rat mixed hippocampal cultures
Assay type: cell-based
Conditions: for % Protection vs 3-NP / inhibition at 10 µM / % Protection: 1 h preincubation, test concentration (10 μM); for inhibition at 10 µM: Rattus norvegicus
Description: For example, a cell viability assay can be used in a preliminary screen on a large series of compounds each of which is tested at a fixed concentration. In some embodiments, mixed hippocampal cell cultures are prepared as described in, e.g., Haughey et al. (1999), J Neurochem, 73(4):1363-1374, and Haughey et al (2004), J Neurosci, 24(1):257-268. Subsequently, the cultures are pretreated for one hour in the presence of a candidate neuroprotective agent and then incubated with a cytotoxic agent for about 18 hours. Examples of cytotoxic agents include, but are not limited to, oxidative stressors (e.g., 3-nitropropionic acid (3-NP) or H2O2), excitatory amino acids (e.g., kainate), or neurotoxic proteins (e.g., Hiv Tat, or Aβ peptides). […] The level of protection (“percent protection”) provided by the test compound at a given test concentration in vitro can be expressed as: […]
A variety of methods for determining cell viability may be used. In some embodiments, cell viability is assessed based on the “MTT” assay method described in Mosmann (1983), J Immunol Methods, 65(1-2):55-63, or a variant thereof. This assay is based on the ability of a mitochondrial dehydrogenase enzyme from viable cells to cleave the tetrazolium rings of the pale yellow MTT and form dark blue formazan crystals, which are trapped in cells and readily quantified by ELISA spectrophotometry.
We sought to evaluate the protective efficacy of a number of modified terpenoid compounds against the against many different neurotoxins, ranging from the chemotoxic 6-OHDA, NMDA, 3-nitropropionic acid (3-NP), and viral proteins such as Tat and gp120. Thus, we established an in vitro neuroprotection assay using rat mixed hippocampal cultures, in which we evaluated the protective efficacy of neuroprotective compounds disclosed herein. The oxidative stressor 3-NP was used to elicit toxicity in the rat hippocampal cultures to mimic the oxidative damage, reactive oxygen species production and ensuing neurodegeneration resulting from HIV infection. Another measure of neurotoxicity which results from HIV infection was evaluated by exposure of the hippocampal cultures to HIV-1 Tat (Li et al (2005), Neurotox Res, 8(1-2): 119-134).
Rat mixed hippocamal neuronal cultures were generated from freshly dissected rat hippocampi (embryonic day 18) in neurobasal media containing 5% fetal bovine serum and 2% B27 supplement. The cells were plated into 96 well plates at a density of 4×10^5 cells/mL and routinely used on days 11-14 following culturing. Cell viability was assessed with MTT [3-(4,5-dimethylthiazol-2-yl)-2,5-diphenyltetrazolium bromide] assay. The MTT assay is based on the ability of a mitochondrial dehydrogenase enzyme from viable cells to cleave the tetrazolium rings of the pale yellow MTT and form dark blue formazan crystals. See Mosmann (1983), J Immunol Methods, 65(1-2):55-63. These crystals are largely impermeable to cell membranes, and thus accumulate within healthy cells. The resultant formazan precipitates are solubilized with DMSO and read on a multiwell scanning spectrophotometer (ELISA reader). The number of surviving cells is directly proportional to the level of the formazan product created.
Mixed hippocampal cultures were incubated with 3-NP (0.5-10 mM) for 18 hours and then assessed for viability using an MTT assay.
Cultures were preincubated with GPI 1046 or Resveratrol for one hour prior to an 18 hour exposure to 3 mM 3-NP. […] The same neuroprotective compounds were evaluated for efficacy against HIV-1 Tat protein toxicity using the same 1 hour preincubation protocol.

[1] = Table 3, 3 mM 3-NP 18 h, read-out: % Protection vs 3-NP
[2] = Table 2, vs 3 mM 3-NP 18 h, read-out: % Protection

| Compound | inhibition at 10 µM [1] | inhibition at 10 µM [2] | other results |
| --- | --- | --- | --- |
| CCC(C)C(=O)O[C@@H]1C[C@@]2(C)[C@H](c3ccoc3)OC(=O)CC23OC2(C)OC34[C@H](OC(=O)C(C)C)[C@@]3(O)[C@@H](OC(=O)C5(C)OC5C)[C@@]5(C)C[C@]3(O)[C@@](C)([C@H]5CC(=O)OC)C14O2 (stereo partly drawn) [ENTANDROPHRAGMIN] | – | – | % Protection vs 3-NP (Table 3, 3 mM 3-NP 18 h): 18% |
| COC(=O)C[C@H]1C(C)(C)[C@@H](OC(C)=O)[C@@H]2CC3=C4CC(=O)O[C@@H](c5ccoc5)[C@]4(C)CC[C@@H]3[C@@]1(C)C2=O [FISSINOLIDE] | 28% | – | – |
| CC(=O)OC1CC2C(C)(C)[C@H](OC(C)=O)C[C@H](OC(C)=O)[C@]2(C)C2CC[C@]3(C)C(=CC(=O)O[C@@H]3c3ccoc3)[C@]12C (stereo partly drawn) [DEOXYKHIVORIN] | 36% | 36% | – |
| CC1(C)C2CC(=O)[C@]3(C)C(CC[C@@]4(C)[C@H](c5ccoc5)OC(=O)C5OC543)[C@@]2(C)[C@@H](O)C[C@H]1O (stereo partly drawn) [1,3-DIDEACETYL-7-DEACETOXY-7-OXOKHIVORIN] | 15% | – | % Protection (Table 2, vs 3 mM 3-NP 18 h): 15% |
| CC(=O)O[C@@H]1CC2C(C)(C)C(=O)CC[C@]2(C)C2CC[C@@]3(C)[C@@H](c4ccoc4)OC(=O)C4OC43[C@@]21C (stereo partly drawn) [DIHYDROGEDUNIN] | – | 28% | – |
| COC(=O)[C@@H]1OC(=O)C2OC23[C@@]1(C)CCC1[C@]2(C)C(C[C@H](O)[C@]13C)C(C)(C)[C@H](OC(C)=O)C[C@@H]2OC(C)=O (stereo partly drawn) [7beta-HYDROXY-7-DESACETOXYKHIVORINIC ACID, METHYL ESTER] | – | – | % Protection (Table 2, vs 3 mM 3-NP 18 h): 84% |
| CC(=O)OC1C=C[C@@]2(C)C(C[C@@H](OC(C)=O)[C@@]3(C)C4=CC(=O)O[C@@H](c5ccoc5)[C@]4(C)CCC23)C1(C)C (stereo partly drawn) [DEOXYGEDUNOL ACETATE] | – | 54% | – |
| COC(=O)C[C@H]1C(C)(C)C2(O)OC34CC2C(=O)[C@]1(C)C3CC[C@]1(C)C4=CC(=O)O[C@H]1c1ccoc1 (stereo partly drawn) [8beta-HYDROXYCARAPIN, 3,8-HEMIACETAL] | – | – | % Protection vs 3-NP (Table 3, 3 mM 3-NP 18 h): 9% |
| CC(=O)O[C@H]1C[C@@H](OC(C)=O)C(C)(C)C2CC(=O)[C@]3(C)C(CC[C@@]4(C)[C@H](c5ccoc5)OC(=O)[C@H]5O[C@]543)[C@]21C (stereo partly drawn) [7-DEACETOXY-7- OXOKHIVORIN, 7-DEACETOXY-7-OXOKHIVORIN] | 36% | 36% | – |
| C=C1C2CC[C@@]3(C)[C@H](c4ccoc4)OC(=O)C[C@]13OC1CC(=O)C(C)(C)C(CC(=O)OC)C12C (stereo partly drawn) [[…], METHYL ESTER] | 33% | 33% | protection against 3-NP (FIG. 5) (3 mM 3-NP, approximate values): about 50% |
| COC(=O)[C@@H]1OC(=O)C2OC23[C@@]1(C)CCC1[C@]2(C)C(C[C@@H](O)[C@]13C)C(C)(C)[C@H](OC(C)=O)C[C@@H]2OC(C)=O (stereo partly drawn) [DESACETYL (7)KHIVORINIC ACID, METHYL ESTER] | – | – | % Protection (Table 2, vs 3 mM 3-NP 18 h): 58% |
| CC(=O)O[C@@H]1CC2C(C)(C)C(=O)C=C[C@]2(C)C2CC[C@@]3(C)C(=CC(=O)O[C@@H]3c3ccoc3)[C@@]21C (stereo partly drawn) [DEOXYGEDUNIN] | 23% | – | % Protection (Table 2, vs 3 mM 3-NP 18 h): 23% |
| C=C1C2CC[C@]3(C)[C@@H](c4ccoc4)OC(=O)CC13O[C@H]1CC(O)C(C)(C)C(CC(=O)OC)[C@@]21C (stereo partly drawn) [3alpha-HYDROXY-3-DEOXYANGOLENSIC ACID METHYL ESTER] | – | 35% | – |
| CC1(C)C2CC(=O)[C@]3(C)C(CC[C@@]4(C)[C@H](c5ccoc5)OC(=O)[C@H]5O[C@]543)[C@@]2(C)C=C[C@@H]1O (stereo partly drawn) [3beta-HYDROXYDEOXYDESACETOXY-7-OXOGEDUNIN] | – | 30% | – |
| CC(=O)OC1CC2C(C)(C)CCC(=O)[C@]2(C)C2CC[C@@]3(C)[C@H](c4ccoc4)OC(=O)C4OC43[C@]12C (stereo partly drawn) [2,3-DIHYDROISOGEDUNIN] | – | – | % Protection (Table 2, vs 3 mM 3-NP 18 h): 44% |
| KHAYASIN C | – | – | % Protection vs 3-NP (Table 3, 3 mM 3-NP 18 h): 13% |
| CC(=O)O[C@@H]1CC2C(C)(C)C=CC(=O)[C@]2(C)C2CC[C@@]3(C)[C@H](c4ccoc4)OC(=O)C4OC43[C@@]21C (stereo partly drawn) [ISOGEDUNIN] | – | 50% | – |
| CC(=O)O[C@@H]1CC2C(C)(C)[C@H](O)C[C@H](O)[C@]2(C)C2CC[C@]3(C)[C@@H](c4ccoc4)OC(=O)[C@H]4O[C@]43[C@@]21C (stereo partly drawn) [1,3-DIDEACETYLKHIVORIN] | – | 129% | – |

— US9289412B2, “Role of limonoid compounds as neuroprotective agents” (The Johns Hopkins University, priority 2006, dated 2016)
